For 29 compounds, emission maximum results are on record in the Deep4Chem optical property database.

Structures are written as SMILES.

A short description of the first series: solvent given as SMILES. The following applies: in CCOCC.
For the compound `c1ccc(-n2c(-c3ccc(-c4ccc(-c5ccc(-c6nc7c8ccccc8c8ccccc8c7n6-c6ccccc6)cc5)cc4)cc3)nc3ccccc32)cc1`, the emission maximum is 427 nm.

Still in this series, the particulars now being: in CN(C)C=O.
As to `CC(C)(C)c1ccc(-c2nc3c4ccc(-c5c6ccccc6cc6ccccc56)cc4c4cc(-c5c6ccccc6cc6ccccc56)ccc4c3n2-c2ccc(C(C)(C)C)cc2)cc1`, the emission maximum is 451 nm.

For `CC(C)(C)c1ccc2c(c1)c1cc(C(C)(C)C)ccc1n2-c1cccc(-c2nc(-c3cccc(-n4c5ccc(C(C)(C)C)cc5c5cc(C(C)(C)C)ccc54)c3)nc(-c3cccc(P(=O)(c4ccccc4)c4ccccc4)c3)n2)c1`, the emission maximum amounted to 532.99 nm.

Regarding `Cc1ccc(/C=N/c2cc(C(C)C)c(O)cc2C)cc1`, the emission maximum was 414 nm.

Compound `Fc1ccc(-c2cc3c4c(c2)CCc2cc(-c5ccc(F)cc5)cc(c2-4)CC3)cc1` gave an emission maximum of 380.68 nm.

`O=C1c2ccccc2-c2ccc(N3CCN(c4ccccc4)CC3)c3cccc1c23` yielded an emission maximum of 602 nm.

The compound `c1ccc(-n2c(-c3ccc(-c4ccc(-c5ccc(-c6nc7c8ccccc8c8ccccc8c7n6-c6ccccc6)cc5)cc4)cc3)nc3ccccc32)cc1` registered an emission maximum of 447 nm.

Still in this series, the particulars now being: in CO.
`Cc1ccc(CN2/C(=C/C=C3\CCCC(/C=C/C4=[N+](Cc5ccc(C)cc5)c5ccccc5C4(C)C)=C3Cl)C(C)(C)c3ccccc32)cc1` gave an emission maximum of 813 nm.

For the compound `c1ccc(-c2nc(-c3cccc4ccccc34)n3ccccc23)cc1`, the emission maximum is reported as 475 nm.

Compound `Cc1ccc(/C=N/c2cc(C(C)C)c(O)cc2C)cc1` had an emission maximum of 422 nm.

The compound `Fc1ccc(-c2cc3c4c(c2)CCc2cc(-c5ccc(F)cc5)cc(c2-4)CC3)cc1` showed an emission maximum of 375.1 nm.

In turn, `O=C1c2ccccc2-c2ccc(N3CCN(c4ccccc4)CC3)c3cccc1c23` returned an emission maximum of 577 nm.

For `CN1CCN(CCCN2c3ccccc3Sc3ccc(Cl)cc32)CC1`, the emission maximum came to 449 nm.

Staying with this series, now noted: in CS(C)=O.
Compound `COc1ccc(C2=CC(c3ccc4cc(N(C)C)ccc4c3)=[O+][B-](F)(F)O2)cc1` registered an emission maximum of 698 nm.

In turn, `Cc1ccc(/C=N/c2cc(C(C)C)c(O)cc2C)cc1` registered an emission maximum of 417 nm.

In turn, `O=C1c2ccccc2-c2ccc(N3CCN(c4ccccc4)CC3)c3cccc1c23` had an emission maximum of 613 nm.

`COc1ccc(/C=C/c2cc(/C=C/c3ccc(OC)cc3)nc(/C=C/c3ccc4cc(OC)ccc4c3)n2)cc1` had an emission maximum of 471 nm.

Still in this series, the particulars now being: in Cc1ccccc1.
`N#Cc1c(N2c3ccccc3C(c3ccccc3)(c3ccccc3)c3ccccc32)cccc1N1c2ccccc2C(c2ccccc2)(c2ccccc2)c2ccccc21` returned an emission maximum of 454 nm.

On to `CC(C)(C)c1ccc(-c2nc3c4ccc(-c5c6ccccc6cc6ccccc56)cc4c4cc(-c5c6ccccc6cc6ccccc56)ccc4c3n2-c2ccc(C(C)(C)C)cc2)cc1`, for which the emission maximum was 428 nm.

Regarding `COc1ccc(C2=CC(c3ccc4cc(N(C)C)ccc4c3)=[O+][B-](F)(F)O2)cc1`, the emission maximum was found to be 555 nm.

In turn, `Cc1ccc(-n2c(-c3ccccc3[N-]S(=O)(=O)c3ccc(C)cc3)[nH+]c3c4ccccc4c4ccccc4c32)cc1` displayed an emission maximum of 506 nm.

Turning to `COC(=O)/C(C#N)=c1\s/c(=c2/s/c(=C(/C#N)C(=O)OC)c3cc(-c4ccc(C)cc4)sc23)c2sc(-c3ccc(C)cc3)cc12`, the emission maximum was determined as 652 nm.

As for `CC(C)(C)c1ccc2c(c1)c1cc(C(C)(C)C)ccc1n2-c1cccc(-c2nc(-c3cccc(-n4c5ccc(C(C)(C)C)cc5c5cc(C(C)(C)C)ccc54)c3)nc(-c3cccc(P(=O)(c4ccccc4)c4ccccc4)c3)n2)c1`, the emission maximum came to 481.21 nm.

Take `O=C1c2ccccc2-c2ccc(N3CCN(c4ccccc4)CC3)c3cccc1c23`: the emission maximum came to 562 nm.

For `COc1ccc(/C=C/c2cc(/C=C/c3ccc(OC)cc3)nc(/C=C/c3ccc4cc(OC)ccc4c3)n2)cc1`, the emission maximum is 411 nm.

For `c1ccc(-n2c(-c3ccc(-c4ccc(-c5ccc(-c6nc7c8ccccc8c8ccccc8c7n6-c6ccccc6)cc5)cc4)cc3)nc3ccccc32)cc1`, the emission maximum amounted to 413 nm.

The series is the same for the next values; noted with them: in ClC(Cl)Cl.
As for `COc1ccc(C2=CC(c3ccc4cc(N(C)C)ccc4c3)=[O+][B-](F)(F)O2)cc1`, the emission maximum came to 596 nm.

With `O=C1Cc2cc3c(cc2CCCc2ccc(cc2)CCC3)CC(=O)Cc2ccc(c3nsnc23)C1`, the emission maximum was found to be 522 nm.

Turning to `Cc1ccc(CN(Cc2ccc(C)cc2)c2nc(C#N)c(N(Cc3ccc(C)cc3)Cc3ccc(C)cc3)nc2C#N)cc1`, the emission maximum was 592 nm.

Compound `CCCCCCCCC1(CCCCCCCC)c2cc3c(cc2-c2sc(-c4ccc(/C=C5\SC(SCC)=NC5=O)c5nsnc45)cc21)C(CCCCCCCC)(CCCCCCCC)c1cc(-c2ccc(/C=C4\SC(SCC)=NC4=O)c4nsnc24)sc1-3` gave an emission maximum of 718 nm.

Compound `CC(C)(C)c1ccc2c(c1)c1cc(C(C)(C)C)ccc1n2-c1cccc(-c2nc(-c3cccc(-n4c5ccc(C(C)(C)C)cc5c5cc(C(C)(C)C)ccc54)c3)nc(-c3cccc(P(=O)(c4ccccc4)c4ccccc4)c3)n2)c1` yielded an emission maximum of 511.48 nm.

`CCCCCCCCC1(CCCCCCCC)c2cc(-c3ccc([Si](C)(C)C)cc3)ccc2-c2ccc(-c3ccc([Si](C)(C)C)cc3)cc21` gave an emission maximum of 368 nm.

The compound `Cc1ccc(/C=N/c2cc(C(C)C)c(O)cc2C)cc1` registered an emission maximum of 415 nm.

Regarding `Fc1ccc(-c2cc3c4c(c2)CCc2cc(-c5ccc(F)cc5)cc(c2-4)CC3)cc1`, the emission maximum came to 379.68 nm.

`O=C1c2ccccc2-c2ccc(N3CCN(c4ccccc4)CC3)c3cccc1c23` returned an emission maximum of 591 nm.

Compound `c1ccc(-n2c(-c3ccc(-c4ccc(-c5ccc(-c6nc7c8ccccc8c8ccccc8c7n6-c6ccccc6)cc5)cc4)cc3)nc3ccccc32)cc1` yielded an emission maximum of 427 nm.

In turn, `COc1ccc(-c2oc3cccc4c5c(-c6ccc(OC)cc6)c(=N)oc6cccc(c2c34)c65)cc1` registered an emission maximum of 505 nm.

Staying with this series, now noted: in ClC=C(Cl)Cl.
In turn, `CC(C)(C)c1ccc(-c2nc3c4ccc(-c5c6ccccc6cc6ccccc56)cc4c4cc(-c5c6ccccc6cc6ccccc56)ccc4c3n2-c2ccc(C(C)(C)C)cc2)cc1` came in with an emission maximum of 429 nm.

Compound `c1ccc(-n2c(-c3ccc(-c4ccc(-c5ccc(-c6nc7c8ccccc8c8ccccc8c7n6-c6ccccc6)cc5)cc4)cc3)nc3ccccc32)cc1` gave an emission maximum of 417 nm.

Still in this series, the particulars now being: in ClCCl.
`CC(C)(C)c1ccc(-c2nc3c4ccc(-c5c6ccccc6cc6ccccc56)cc4c4cc(-c5c6ccccc6cc6ccccc56)ccc4c3n2-c2ccc(C(C)(C)C)cc2)cc1` gave an emission maximum of 442 nm.

Turning to `N#Cc1ccc(N(c2ccccc2)c2ccc3ccc4c(N(c5ccccc5)c5ccc(C#N)cc5)ccc5ccc2c3c54)cc1`, the emission maximum stood at 454 nm.

Consider `COc1ccc(C2=CC(c3ccc4cc(N(C)C)ccc4c3)=[O+][B-](F)(F)O2)cc1`, for which the emission maximum was found to be 631 nm.

Take `C[Si]1(C)O[Si](C)(C)c2cc3nc4ccccc4c(-c4ccccc4)c3cc2[Si](C)(C)O1`: the emission maximum is on record as 501 nm.

For the compound `c1ccc(-c2nc(-c3cccc4ccccc34)n3ccccc23)cc1`, the emission maximum was found to be 486 nm.

`CCC(C)Nc1c2ccc(=[N+]3CCCCC3)cc-2oc2cc(N3CCCCC3)ccc12` (stereo not drawn) returned an emission maximum of 537 nm.

In turn, `CCN(CC)c1ccc2c(c1)oc(=O)c1c(C)nc3c(c(-c4ccccc4)nn3-c3ccccc3)c12` showed an emission maximum of 461 nm.

The compound `CCOC(=O)COc1ccc(/C=C/C2=C3C(C)=CC(/C=C/c4ccc(OCC(=O)OCC)cc4)=[N+]3[B-](F)(F)n3c2c2ccccc2c3-c2[nH]c(C)cc2C)cc1` registered an emission maximum of 733 nm.

The compound `CC(C)(C)c1ccc2c(c1)c1cc(C(C)(C)C)ccc1n2-c1cccc(-c2nc(-c3cccc(-n4c5ccc(C(C)(C)C)cc5c5cc(C(C)(C)C)ccc54)c3)nc(-c3cccc(P(=O)(c4ccccc4)c4ccccc4)c3)n2)c1` had an emission maximum of 532.99 nm.

Regarding `COc1ccc(C2=Cc3ccccc3[Si]2(c2ccccc2)c2ccccc2)cc1`, the emission maximum is on record as 418 nm.

As for `Cc1ccc(/C=N/c2cc(C(C)C)c(O)cc2C)cc1`, the emission maximum is on record as 415 nm.

Take `CCCCCc1c(C(=O)c2ccc3c4c(cccc24)-c2cccc4c2C3CC=C4)c2ccc3cccc4c5cccc6ccc1c(c65)c2c34` (stereo not drawn): the emission maximum came out at 525 nm.

Compound `Fc1ccc(-c2cc3c4c(c2)CCc2cc(-c5ccc(F)cc5)cc(c2-4)CC3)cc1` registered an emission maximum of 378.91 nm.

`COc1ccc(/C=C/c2cc(/C=C/c3ccc(OC)cc3)nc(/C=C/c3ccc4cc(OC)ccc4c3)n2)cc1`: the emission maximum came to 443 nm.

As for `c1ccc(-n2c(-c3ccc(-c4ccc(-c5ccc(-c6nc7c8ccccc8c8ccccc8c7n6-c6ccccc6)cc5)cc4)cc3)nc3ccccc32)cc1`, the emission maximum was found to be 432 nm.

The series is the same for the next values; noted with them: in O.
For `O=C([O-])c1ccc(C(=O)[O-])c(C2=c3cc4c5c(c3Oc3c2cc2c6c3CCCN6CCC2)CCC[N+]=5CCC4)c1`, the emission maximum came out at 603 nm.

In turn, `c1ccc(-c2nc(-c3cccc4ccccc34)n3ccccc23)cc1` had an emission maximum of 475 nm.

As for `Cc1ccc(/C=N/c2cc(C(C)C)c(O)cc2C)cc1`, the emission maximum was 441 nm.

On to `CN(C)c1ccc2cc3ccc(=[N+](C)C)cc-3oc2c1`, for which the emission maximum came out at 565 nm.

As for `CN1CCN(CCCN2c3ccccc3Sc3ccc(Cl)cc32)CC1`, the emission maximum came to 457 nm.

The same series, now with this note: in O=P(c1ccccc1)(c1ccccc1)c1ccccc1Oc1ccccc1P(=O)(c1ccccc1)c1ccccc1.
As to `N#Cc1c(N2c3ccccc3C(c3ccccc3)(c3ccccc3)c3ccccc32)cccc1N1c2ccccc2C(c2ccccc2)(c2ccccc2)c2ccccc21`, the emission maximum was found to be 466 nm.

In turn, `CC(C)(C)c1ccc2c(c1)c1cc(C(C)(C)C)ccc1n2-c1cccc(-c2nc(-c3cccc(-n4c5ccc(C(C)(C)C)cc5c5cc(C(C)(C)C)ccc54)c3)nc(-c3cccc(P(=O)(c4ccccc4)c4ccccc4)c3)n2)c1` returned an emission maximum of 484 nm.

The series is the same for the next values; noted with them: in OCCO.
Take `Cc1ccc(/C=N/c2cc(C(C)C)c(O)cc2C)cc1`: the emission maximum was 425 nm.

The series is the same for the next values; noted with them: in c1ccccc1.
On to `CCOC(=O)CSc1nc(C)c(CC)c(C#N)c1C#N`, for which the emission maximum came to 407 nm.
